Structures are written as SMILES.

Usually EC50 stands for the concentration needed to bring the measured effect to its halfway point.

This experiment relates to T1, GABAARs (native, cultured hippocampal neurons).
T1 construct: gene Gabra1
The conditions noted are these: GABA 100 μM by pressure ejection, -60 mV; allosteric potentiator; error ± 0.3 in Figure 1 legend.

Regarding `Nc1ncnc2c1ncn2[C@@H]1O[C@H](COP(=O)(O)OP(=O)(O)OP(=O)(O)O)[C@@H](O)[C@H]1O` [ATP], the EC50 was determined as 2100 ± 200 µM.

(Values after paper PMC3904413, “Allosteric modulation of GABAA receptors by extracellular ATP” (Molecular Brain, 2014).)
